Laboratory results taken from PubChem BioAssay (NCI).
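Results reflect a 48-hour exposure of cells in 96-well plates to compound at five concentrations. The concentration for full growth arrest is given as TGI.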

Assays:
Experiment in all cases: NCI anticancer screen, dose series, 48 h
[1] = tested on: SNB-19 CNS
[2] = tested on: COLO 205 colon
[3] = tested on: UACC-62 melanoma
[4] = tested on: U251 CNS
[5] = tested on: NCI-H460 lung
[6] = tested on: IGROV1 ovarian
[7] = tested on: OVCAR-8 ovarian
[8] = tested on: DMS 114 small cell lung
[9] = tested on: MOLT-4 leukemia
[10] = tested on: HCT-15 colon
[11] = tested on: A498 renal
[12] = tested on: LOX IMVI melanoma
[13] = tested on: HOP-92 NSCLC
[14] = tested on: NCI-H522 lung
[15] = tested on: SK-MEL-2 melanoma
[16] = tested on: SNB-78 CNS
[17] = tested on: M19-MEL melanoma
[18] = tested on: CAKI-1 renal
[19] = tested on: SK-OV-3 ovarian
[20] = tested on: HOP-18 NSCLC
[21] = tested on: K-562 leukemia
[22] = tested on: LXFL 529 NSCLC
[23] = tested on: UO-31 renal
[24] = tested on: ACHN renal
[25] = tested on: XF 498 CNS
[26] = tested on: SW-620 colon
[27] = tested on: MALME-3M melanoma
[28] = tested on: SF-539 CNS
[29] = tested on: SN12C renal
[30] = tested on: KM20L2 colon
[31] = tested on: OVCAR-3 ovarian
[32] = tested on: SF-268 CNS
[33] = tested on: TK-10 renal
[34] = tested on: NCI-H23 lung
[35] = tested on: SF-295 CNS
[36] = tested on: CCRF-CEM leukemia
[37] = tested on: HT29 colon
[38] = tested on: DLD-1 colon
[39] = tested on: M14 melanoma
[40] = tested on: SNB-75 CNS
[41] = tested on: SK-MEL-28 melanoma
[42] = tested on: RXF-631 renal
[43] = tested on: SK-MEL-5 melanoma
[44] = tested on: HL-60(TB) leukemia
[45] = tested on: EKVX NSCLC
[46] = tested on: RPMI-8226 leukemia
[47] = tested on: NCI-H226 lung
[48] = tested on: KM12 colon
[49] = tested on: OVCAR-5 ovarian
[50] = tested on: OVCAR-4 ovarian
[51] = tested on: HCC-2998 colon
[52] = tested on: 786-0 renal
[53] = tested on: HOP-62 NSCLC
[54] = tested on: A549 NSCLC
[55] = tested on: UACC-257 melanoma
[56] = tested on: HCT-116 colon
[57] = tested on: RXF 393 renal

With CC1=NC(C(=O)O)Cc2c1[nH]c1ccccc21 (centres undefined) the TGI [1] was greater than 100 µM, the TGI [2] was greater than 100 µM and the TGI [3] was greater than 100 µM. The TGI [4] was greater than 100 µM, the TGI [5] was greater than 100 µM and the TGI [6] was greater than 100 µM. It also gave a TGI [7] greater than 100 µM, a TGI [8] greater than 100 µM and a TGI [9] greater than 100 µM. The TGI [10] was greater than 100 µM, the TGI [11] was greater than 100 µM and the TGI [12] was greater than 100 µM. For the same molecule, the TGI [13] was greater than 100 µM, the TGI [14] was greater than 100 µM and the TGI [15] was greater than 100 µM. The TGI [16] was greater than 100 µM, the TGI [17] was greater than 100 µM and the TGI [18] was greater than 100 µM. For the same molecule, the TGI [19] was greater than 100 µM, the TGI [20] was greater than 100 µM and the TGI [21] was greater than 100 µM. The TGI [22] was greater than 100 µM, the TGI [23] was greater than 100 µM and the TGI [24] was greater than 100 µM. It also gave a TGI [25] greater than 100 µM, a TGI [26] greater than 100 µM and a TGI [27] greater than 100 µM. For the same molecule, the TGI [28] was greater than 100 µM, the TGI [29] was greater than 100 µM and the TGI [30] was greater than 100 µM. It also gave a TGI [31] greater than 100 µM, a TGI [32] greater than 100 µM and a TGI [33] greater than 100 µM. The TGI [34] was greater than 100 µM, the TGI [35] was greater than 100 µM and the TGI [36] was greater than 100 µM. The TGI [37] was greater than 100 µM, the TGI [38] was greater than 100 µM and the TGI [39] was greater than 100 µM. For the same molecule, the TGI [40] was greater than 100 µM, the TGI [41] was greater than 100 µM and the TGI [42] was greater than 100 µM. For the same molecule, the TGI [43] was greater than 100 µM, the TGI [44] was greater than 100 µM and the TGI [45] was greater than 100 µM. It also gave a TGI [46] greater than 100 µM and a TGI [47] greater than 100 µM.
For Cc1ncc(CCl)c2c1OC(C)(C)OC2, the TGI [1] was greater than 100 µM, the TGI [48] was greater than 100 µM and the TGI [3] was greater than 100 µM. For the same molecule, the TGI [4] was 27.5 µM, the TGI [5] was greater than 100 µM and the TGI [6] was greater than 100 µM. The TGI [7] was greater than 100 µM, the TGI [8] was greater than 100 µM and the TGI [9] was greater than 100 µM. For the same molecule, the TGI [11] was greater than 100 µM, the TGI [12] was 33.5 µM and the TGI [13] was 73.1 µM. The TGI [14] was 32.6 µM, the TGI [15] was greater than 100 µM and the TGI [16] was greater than 100 µM. For the same molecule, the TGI [17] was greater than 100 µM, the TGI [49] was 40.3 µM and the TGI [19] was greater than 100 µM. The TGI [50] was 28.4 µM, the TGI [20] was 36 µM and the TGI [21] was greater than 100 µM. The TGI [51] was greater than 100 µM, the TGI [52] was 41.2 µM and the TGI [22] was greater than 100 µM. The TGI [23] was greater than 100 µM, the TGI [24] was 45.4 µM and the TGI [53] was greater than 100 µM. For the same molecule, the TGI [25] was greater than 100 µM, the TGI [54] was greater than 100 µM and the TGI [26] was 34 µM. For the same molecule, the TGI [55] was greater than 100 µM, the TGI [27] was 37 µM and the TGI [28] was greater than 100 µM. For the same molecule, the TGI [29] was greater than 100 µM, the TGI [56] was 65.8 µM and the TGI [30] was greater than 100 µM. The TGI [31] was 69.7 µM, the TGI [32] was 53.6 µM and the TGI [33] was greater than 100 µM. It also gave a TGI [57] of 29.5 µM, a TGI [34] greater than 100 µM and a TGI [35] greater than 100 µM. For the same molecule, the TGI [36] was greater than 100 µM, the TGI [37] was greater than 100 µM and the TGI [38] was greater than 100 µM. It also gave a TGI [39] greater than 100 µM, a TGI [41] of 56.6 µM and a TGI [42] of 73.9 µM. For the same molecule, the TGI [44] was 65.2 µM, the TGI [45] was 41.4 µM and the TGI [46] was greater than 100 µM. For the same molecule, the TGI [47] was greater than 100 µM.
